In patent US5948792A, “Fluorine-containing 1,4-disubstituted piperidine derivatives” (Banyu Pharmaceutical Co., Ltd., priority 1996, dated 1999):

Tests used:
[1] = molecular target: T1, M2 receptor (Rattus norvegicus, UniProt P10980); assay: Antagonism to M2 receptor in an isolated rat right atrium (in vitro); assay type: cell-based; conditions: carbachol-induced decrease in heart rate
T1 construct: the right atrium was isolated; from tissue; host or cells: isolated right atrium of male SD strain rat
T1 sequence (P10980 1-466): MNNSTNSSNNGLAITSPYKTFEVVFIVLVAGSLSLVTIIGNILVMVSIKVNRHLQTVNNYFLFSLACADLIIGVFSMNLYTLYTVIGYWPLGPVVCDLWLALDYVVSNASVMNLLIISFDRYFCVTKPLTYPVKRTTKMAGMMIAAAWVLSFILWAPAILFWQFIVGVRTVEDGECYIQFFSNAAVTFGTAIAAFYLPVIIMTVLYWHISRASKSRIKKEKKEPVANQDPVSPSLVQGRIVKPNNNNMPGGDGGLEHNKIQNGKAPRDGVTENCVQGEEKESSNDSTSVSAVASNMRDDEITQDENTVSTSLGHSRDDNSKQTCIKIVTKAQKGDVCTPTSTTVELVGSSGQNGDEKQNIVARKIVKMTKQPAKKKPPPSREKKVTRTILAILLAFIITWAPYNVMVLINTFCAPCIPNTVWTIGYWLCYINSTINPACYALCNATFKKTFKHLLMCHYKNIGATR
Procedure: (§1) Tests for Antagonism to Muscarinic Receptors (in vitro)
1) Tests for Antagonism to M2 receptor in an Isolated Rat Right Atrium
These tests were performed according to a conventional method. A male SD strain rat (weighing 300-500 g) was killed by exsanguination, and the right atrium was isolated. This preparation was isometrically suspended in organ bath filled with 20 ml of Krebs-Henseleit solution (gassed with 95% O2 -5% CO2 and kept at 32° C.) with an initial tension of 0.5 g. The heart rate was recorded with a heart rate counter. After the preparation was equilibrated for 30 minutes, carbachol (10^-9 to 10^-6 M) was cumulatively administered in three-fold increasing doses. Thus, a decrease in heart rate was measured to obtain a dose-response curve for the control experiment. After the preparation was washed with fresh solution to restore the heart rate, a test compound was administered thereto. Ten minutes later, carbachol was cumulatively administered again. Responses to carbachol were expressed as percentages based on the heart rate before administration of carbachol as 100%. The antagonistic potency (KB value) of the test compound was determined from the degree of shift of the dose-response curve obtained by treatment with individual test compound of the present invention.

[2] = test system: Muscarinic M3 Receptor; assay: Bronchodilation in dogs (p.o.), methacholine provocation test; assay type: in vivo, dog; conditions: beagle dogs, 1 mg/kg p.o., 4 hours after administration
Procedure: (§2) Tests for Antagonism Against Muscarinic M3 Receptor (in vivo)
2) Tests for Bronchodilation in Dogs (p.o.)
Twelve- to twenty-four-months-old male beagle dogs (weighing 10-15 kg) were anesthetized with pentobarbital (30 mg/kg, i.v.) and intubated in their bronchus. Their airway sensitivity to inhaled methacholine were measured at least twice at two-weeks interval, and the dogs showing a reproducible methacholine reaction threshold values^1) ware selected. To those dogs whose methacholine reaction threshold value had been confirmed, the test compounds were orally administered (1 mg/kg). Four hours after the administration, the methacholine provocation test was conducted, and then the methacholine reaction threshold value^2) after administration of the test compound was obtained.
The bronchodilator activity of the test compound was determined following equation: [formula]
The methacholine provocation test was conducted using Astograph TCK-6100H Model (Chest). Methacholine chloride was used as bronchoconstritor, which was diluted with isotonic sodium chloride solution in 10-grade concentration levels starting from 40,000 μg/ml, as 20,000, 10,000, 5,000, 2,500, 1,250, 625, 312.5, 156 and 78 μg/ml. These methacholine aerosols were inhaled to the test animal each for 1 min, starting from the lowest concentration level, and respiration resistance was continuously recorded. The concentration level at which the respiration resistance reached twice the initial value was recorded as the methacholine threshold value.

[3] = molecular target: T2, airway M3 receptor (Rattus norvegicus, UniProt P08483); assay: Antagonism to the airway M3 receptor in an isolated rat trachea (in vitro); assay type: cell-based; conditions: for Kb: isolated rat trachea, carbachol-induced contraction
T2 construct: the trachea was isolated; from tissue; host or cells: isolated trachea of male SD strain rat
T2 sequence (P08483 whole entry): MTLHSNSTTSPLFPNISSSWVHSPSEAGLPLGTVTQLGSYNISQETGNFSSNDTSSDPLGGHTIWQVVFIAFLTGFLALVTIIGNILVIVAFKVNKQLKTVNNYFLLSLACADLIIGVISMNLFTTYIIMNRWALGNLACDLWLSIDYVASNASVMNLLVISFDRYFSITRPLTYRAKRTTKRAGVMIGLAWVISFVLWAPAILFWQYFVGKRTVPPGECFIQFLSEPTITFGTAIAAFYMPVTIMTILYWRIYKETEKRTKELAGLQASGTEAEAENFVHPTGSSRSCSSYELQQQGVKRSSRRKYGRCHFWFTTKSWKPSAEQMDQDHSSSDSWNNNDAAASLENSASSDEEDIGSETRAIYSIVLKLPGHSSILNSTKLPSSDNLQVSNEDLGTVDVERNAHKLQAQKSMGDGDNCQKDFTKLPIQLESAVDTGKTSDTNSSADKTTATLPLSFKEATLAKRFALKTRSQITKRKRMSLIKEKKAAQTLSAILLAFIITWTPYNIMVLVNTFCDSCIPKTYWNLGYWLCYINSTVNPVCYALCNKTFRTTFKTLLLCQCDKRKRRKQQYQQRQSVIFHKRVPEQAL
Procedure: as §1
2) Tests for Antagonism to the Airway M3 Receptor in an Isolated Rat Trachea
These tests were performed according to a conventional method. A male SD strain rat (weighing 300-500 g) was killed by exsanguination, and the trachea was isolated. Annular segments (2 mm wide) were cut out from the trachea and cut transversely at the anterior cartilage part to make open ring preparation. A preparation was suspended in a Magnus tube filled with 5 ml of Krebs-Henseleit solution (gassed with 95% O2 -5% CO2 and kept at 32° C.) with an initial tension of 1.0 g and a resting tension of 0.6 g. The tension of the preparation was recorded isometrically. After being equilibrated for an hour, the preparation was made to contract twice by treatment with 10^-4 M carbachol, and the second contraction induced by carbachol was used as the reference contraction. After the preparation was washed with fresh solution to be restored to the base line, a test compound was administered thereto (or no treatment was given). Ten minutes later, carbachol (10^-8 to 10^-3 M) was cumulatively administered in three-fold increasing doses to obtain a dose-response curve. The dose-response curve was plotted by expressing responses as percentages based on the reference contraction of the preparation as 100%. The antagonistic potency (K^B value) of the test compound was determined from the degree of shift of the dose-response curve obtained by treatment with the test compound.

[4] = molecular target: T3, Muscarinic M3 Receptor (Rattus norvegicus, UniProt P08483); assay: Bronchodilation in rats (p.o.), inhibition of acetylcholine-induced increase in airway resistance; assay type: in vivo; conditions: po, 1 h, acetylcholine 50 μg/kg i.v. 60 minutes after test compound, read-out: Inhibition of Airway Contraction ED50 po
T3 construct: male rats of the Sprague-Dawley strain; from tissue; host or cells: airways of living male Sprague-Dawley rats (in vivo)
T3 sequence (P08483 whole entry): as above
Procedure: as §2
1-B) Tests for Bronchodilation in Rats (p.o.)
Eight- to eleven-weeks-old male rats of Sprague-Dawley strain weighing 380-420 g were orally administered with a test compound. The rats were treated in the identical manner as in the i.v. test, starting 30 minutes after the administration, and their airway resistance values were measured. The acetylcholine-(50 μg/kg, i.v.) induced airway resistance increase were measured 60 minutes after the administration of test compounds. In controls, isotonic sodium chloride solution was used in place of the test compounds and otherwise identical procedures were repeated, the ratio between the two airway resistance values whereby being set to be 100%.

[5] = molecular target: T3, Muscarinic M3 Receptor; assay: Bronchodilation in rats (i.v.), inhibition of acetylcholine-induced increase in airway resistance; assay type: in vivo; conditions: iv, 5 min, acetylcholine 50 μg/kg i.v. 5 minutes after test compound, read-out: Inhibition of Airway Contraction ED50 iv
Procedure: as §2
1-A) Tests for Bronchodilation in Rats (i.v.).
Eight- to eleven-weeks-old male rats of the Sprague-Dawley strain, weighing 380-420 g, were anesthetized with urethane (750 mg/kg. i.p.) and α-chloralose (37.5 mg/kg, i.p.). The bronchus of each rat was intubated, and the right jugular vein was cannulated for drug administration. […] To evoke an increase in airway resistance, acetylcholine (50 μg/kg, i.v.) was administered to the animals. The acetylcholine-induced airway resistance increase was measured 5 minutes before and 5 minutes after administration of test compound, and the ratio of the airway resistance of the latter to the former was calculated. In controls, isotonic sodium chloride solution was used in place of the test compounds and otherwise identical procedures were repeated, the calculated ratio being set to be 100%.

Row | SMILES | Kb [1] [nM] | Methacholine Inhalation-inducing Test shift value (after 4 hrs.) [2] | Kb [3] [nM] | ED50 [4] [mg/kg] | ED50 [5] [mg/kg] | M2/M3 (ratio of KB) ([3]; selectivity ratio of KB values, right atrium M2 / trachea M3)
1 | O=C(NC1CCN(Cc2ccsc2)CC1)[C@](O)(c1ccccc1)[C@@H]1CCC(F)(F)C1 [Example 11, (2R)-N-[1-(3-thienylmethyl)piperidin-4-yl]-2-[(1R)-3,3-difluorocyclopentyl]-2-hydroxy-2-phenylacetamide] | 610 | 21 | 0.95 | 0.22 | 0.032 | 
2 | Cl.Cl.Nc1cccc(CN2CCC(NC(=O)[C@](O)(c3ccccc3)[C@@H]3CCC(F)(F)C3)CC2)n1 [Example 20, (2R)-N-[1-(6-aminopyridin-2-ylmethyl)piperidin-4-yl]-2-[(1R)-3,3-difluorocyclopentyl]-2-hydroxy-2-phenylacetamide dihydrochloride] | 2100 | > 69 | 1.6 | 0.37 | 0.04 | 630
